Measured values as given in ChEMBL document CHEMBL1201862, “PubChem BioAssay data set” (2004).
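Where inhibition never reached the appropriate level, the endpoint shown equals the highest concentration tested. Otherwise, values were interpolated linearly from a five-concentration, 48-hour dose response in 96-well plates. GI50 = concentration required for 50% inhibition of growth.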 Calls of active or inactive are those of the source. Rule as the data show it: active = GI50 up to about 1.1 µM and inactive = higher. *1 amine or outer side, *2 acyl side, *3 side chain or, on linkers, in order; H or OH if unused. Where a SMILES comes first, the peptide text is derived from it. Bridges are numbered along the chain shown (N, C = ends). Roman numbers before positions name the chains, in order. [ ]: non-standard residue; d: D form. Actinocin(9to1) = Cc1c2oc3c(C)ccc(C(=O)[*:1])c3nc-2c(C(=O)[*:2])c(N)c1=O; NMeV = CN[CH](C(=O)O)C(C)C; Sar = CNCC(=O)O

Legend:
Experiment in all cases: growth of human tumour cells (NCI), 48 h
KM12 = test system: KM12
DU-145 = test system: DU-145
A498 = test system: A498
A549 = test system: A549
HCT-116 = test system: HCT-116
UO-31 = test system: UO-31
RPMI-8226 = test system: RPMI-8226
HCC 2998 = test system: HCC 2998
K562 = test system: K562
ACHN = test system: ACHN
MDA-N = test system: MDA-N
786-0 = test system: 786-0
UACC-257 = test system: UACC-257
OVCAR-4 = test system: OVCAR-4
MOLT-4 = test system: MOLT-4
MDA-MB-435 = test system: MDA-MB-435
CCRF-CEM = test system: CCRF-CEM
OVCAR-3 = test system: OVCAR-3
COLO 205 = test system: COLO 205
SK-MEL-2 = test system: SK-MEL-2
SW-620 = test system: SW-620
HT-29 = test system: HT-29
NCI-H226 = test system: NCI-H226
NCI-H23 = test system: NCI-H23
NCI/ADR-RES = test system: NCI/ADR-RES
UACC-62 = test system: UACC-62
MDA-MB-231 = test system: MDA-MB-231
NCI-H460 = test system: NCI-H460
OVCAR-5 = test system: OVCAR-5
LOX IMVI = test system: LOX IMVI
TK-10 = test system: TK-10
SF-295 = test system: SF-295
NCI-H522 = test system: NCI-H522
Hs-578T = test system: Hs-578T
SK-MEL-5 = test system: SK-MEL-5
RXF 393 = test system: RXF 393
HOP-62 = test system: HOP-62
PC-3 = test system: PC-3
U-251 = test system: U-251
MCF7 = test system: MCF7
HCT-15 = test system: HCT-15
M14 = test system: M14
EKVX = test system: EKVX
Malme-3M = test system: Malme-3M
SF-268 = test system: SF-268
SNB-75 = test system: SNB-75
SN12C = test system: SN12C
SR = test system: SR
SK-OV-3 = test system: SK-OV-3
SK-MEL-28 = test system: SK-MEL-28
SF-539 = test system: SF-539
CAKI-1 = test system: CAKI-1
IGROV-1 = test system: IGROV-1
BT-549 = test system: BT-549
HL-60 = test system: HL-60
T47D = test system: T47D
OVCAR-8 = test system: OVCAR-8

## Cc1c2oc3c(C)ccc(C(=O)NC4C(=O)NC(Cc5ccccc5)C(=O)N5CCCC5C(=O)N(C)CC(=O)N(C)C(C(C)C)C(=O)OC4C)c3nc-2c(C(=O)NC2C(=O)NC(Cc3ccccc3)C(=O)N3CCCC3C(=O)N(C)CC(=O)N(C)C(C(C)C)C(=O)OC2C)c(N)c1=O (configuration not stated) (I: TFP[Sar][NMeV] / II: TFP[Sar][NMeV]; ester I:1-I:C, II:1-II:C; linker I:N-II:N via Actinocin(9to1); configuration not given here)
KM12
  GI50: < 1 nM (active)
DU-145
  GI50: < 1 nM (active)
A498
  GI50: 2.04 nM (active)
A549
  GI50: < 1 nM (active)
HCT-116
  GI50: < 1 nM (active)
UO-31
  GI50: 3.54 nM (active)
RPMI-8226
  GI50: < 1 nM (active)
HCC 2998
  GI50: < 1 nM (active)
K562
  GI50: < 1 nM (active)
ACHN
  GI50: < 1 nM (active)
MDA-N
  GI50: 1.62 nM (active)
786-0
  GI50: < 1 nM (active)
UACC-257
  GI50: < 1 nM (active)
OVCAR-4
  GI50: 17.1 nM (active)
MOLT-4
  GI50: < 1 nM (active)
MDA-MB-435
  GI50: < 1 nM (active)
CCRF-CEM
  GI50: < 1 nM (active)
OVCAR-3
  GI50: < 1 nM (active)
COLO 205
  GI50: < 1 nM (active)
SK-MEL-2
  GI50: < 1 nM (active)
SW-620
  GI50: < 1 nM (active)
HT-29
  GI50: < 1 nM (active)
NCI-H226
  GI50: < 1 nM (active)
NCI-H23
  GI50: < 1 nM (active)
NCI/ADR-RES
  GI50: 439 nM (active)
UACC-62
  GI50: < 1 nM (active)
MDA-MB-231
  GI50: 22 nM (active)
NCI-H460
  GI50: < 1 nM (active)
OVCAR-5
  GI50: 4.84 nM (active)
LOX IMVI
  GI50: < 1 nM (active)
TK-10
  GI50: 21 nM (active)
SF-295
  GI50: < 1 nM (active)
NCI-H522
  GI50: < 1 nM (active)
Hs-578T
  GI50: 1.1 nM (active)
SK-MEL-5
  GI50: < 1 nM (active)
RXF 393
  GI50: 13.5 nM (active)
HOP-62
  GI50: 11.9 nM (active)
PC-3
  GI50: < 1 nM (active)
U-251
  GI50: < 1 nM (active)
MCF7
  GI50: < 1 nM (active)
HCT-15
  GI50: 29.6 nM
M14
  GI50: 10.5 nM (active)
EKVX
  GI50: 136 nM (active)
Malme-3M
  GI50: < 1 nM (active)
SF-268
  GI50: < 1 nM (active)
SNB-75
  GI50: 5.77 nM (active)
SN12C
  GI50: < 1 nM (active)
SR
  GI50: < 1 nM (active)
SK-OV-3
  GI50: < 1 nM (active)
SK-MEL-28
  GI50: < 1 nM (active)
SF-539
  GI50: 123 nM (active)
CAKI-1
  GI50: 1.51 nM (active)
IGROV-1
  GI50: < 1 nM (active)
BT-549
  GI50: 10 nM (active)
HL-60
  GI50: < 1 nM (active)
T47D
  GI50: < 1 nM (active)
OVCAR-8
  GI50: < 1 nM (active)
